From the supplement of paper PMC10307832

Assays:
Assay in all cases: relative viability (nuclei count vs DMSO), 5 days (fraction); higher = more cells survive
[1] = compound: CN[C@@H]1C[C@H]2O[C@@](C)([C@@H]1OC)n1c3ccccc3c3c4c(c5c6ccccc6n2c5c31)C(=O)NC4 [Staurosporine] + O=C(CCCCCCC(=O)Nc1ccccc1)NO [Vorinostat] (partner 1 µM)
In short: (§1)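 Values are medians from duplicate plates. Each reflects relative viability, defined as the nuclei count of treated wells over that of vehicle wells. Lung cancer cell lines in 1536-well plates were pin-tool dosed one day after seeding with one drug alone or with a fixed anchor-drug dose plus five library-drug doses (not always all listed) in √10 steps, then fixed, stained and imaged at 4× after 5 days.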

[2] = compound: CN[C@@H]1C[C@H]2O[C@@](C)([C@@H]1OC)n1c3ccccc3c3c4c(c5c6ccccc6n2c5c31)C(=O)NC4 [Staurosporine] + Nc1ncn([C@H]2C[C@H](O)[C@@H](CO)O2)c(=O)n1 [Decitabine] (partner 2 µM)
In short: as §1

[3] = compound: O=c1[nH]cc(F)c(=O)[nH]1 [5-Fluorouracil] + O=C(CCCCCCC(=O)Nc1ccccc1)NO [Vorinostat] (partner 1 µM)
In short: as §1

[4] = compound: CN[C@@H]1C[C@H]2O[C@@](C)([C@@H]1OC)n1c3ccccc3c3c4c(c5c6ccccc6n2c5c31)C(=O)NC4 [Staurosporine] + C[C@@H](Oc1cc(-c2cnn(C3CCNCC3)c2)cnc1N)c1c(Cl)ccc(F)c1Cl [Crizotinib] (partner 1 µM)
In short: as §1

Cell Line	relative viability ([1]; first compound 0.005 µM)	relative viability ([1]; first compound 0.01581 µM)	relative viability ([1]; first compound 0.05 µM)	relative viability ([1]; first compound 0.1581 µM)	relative viability ([1]; first compound 0.5 µM)	relative viability ([2]; first compound 0.005 µM)	relative viability ([2]; first compound 0.01581 µM)	relative viability ([2]; first compound 0.05 µM)	relative viability ([2]; first compound 0.1581 µM)	relative viability ([2]; first compound 0.5 µM)	relative viability ([3]; first compound 0.02 µM)	relative viability ([3]; first compound 0.2 µM)	relative viability ([3]; first compound 0.6325 µM)	relative viability ([3]; first compound 2 µM)	relative viability ([4]; first compound 0.005 µM)	relative viability ([4]; first compound 0.01581 µM)	relative viability ([4]; first compound 0.05 µM)	relative viability ([4]; first compound 0.1581 µM)	relative viability ([4]; first compound 0.5 µM)
HCC-827	0.866	0.772	0.384	0.174	0.183	0.34	0.274	0.288	0.211	0.189	0.556	0.697	0.348	0.272	0.927	0.803	0.583	0.575	0.442
NCI-H1975	0.297	0.232	0.218	0.146	0.105	0.255	0.206	0.184	0.15	0.131	0.748	0.457	0.302	0.215	0.369	0.276	0.212	0.121	0.115
NCI-H2023	0.313	0.14	0.0786	0.0748	0.0408	0.218	0.162	0.116	0.0753	0.0615	0.369	0.124	0.103	0.0849	0.262	0.288	0.132	0.0749	0.0599
ChaGo-K-1	0.791	–	0.359	0.147	0.144	0.641	–	0.544	0.435	0.432	0.814	0.687	0.622	0.384	1.14	–	0.819	0.256	0.203
COR-L 105	0.69	0.289	0.228	0.333	0.224	0.603	0.44	0.381	0.332	0.229	0.718	0.881	0.771	0.626	0.45	0.405	–	0.307	0.195
NCI-H2170	0.875	–	0.488	0.0663	0.0848	0.492	–	0.431	0.354	0.229	0.796	0.704	0.33	0.292	1.43	0.754	0.92	0.195	0.311
NCI-H460	–	0.179	0.0234	0.0138	0.0076	0.397	0.308	0.175	0.0228	0.0211	0.903	0.222	0.082	0.0565	0.708	0.677	0.0267	0.0065	0.0073
NCI-H1993	0.588	0.275	0.475	0.344	0.232	0.665	0.604	0.573	0.44	0.354	0.846	0.552	0.494	0.547	0.861	0.78	0.527	0.487	0.298
NCI-H322M	0.581	0.424	0.451	0.405	0.398	0.667	0.49	0.529	0.475	0.49	0.932	0.917	0.787	0.757	0.98	0.666	0.654	0.558	0.433
NCI-H2405	0.199	0.147	0.131	0.0894	0.0973	0.516	0.161	0.119	0.107	0.0998	1.02	1.14	0.931	0.522	0.681	0.319	0.146	0.125	0.106
HCC-44	1.1	–	0.517	0.27	0.2	0.937	–	0.661	0.302	0.275	1.09	1.07	0.824	0.544	0.531	0.508	0.197	0.0883	0.0867
HCC-78	0.475	0.377	0.388	0.367	0.279	0.76	0.617	0.627	0.444	0.49	0.463	0.426	0.325	0.232	0.358	0.236	0.244	0.261	0.239
COR-L23	0.159	0.147	0.0727	0.0709	0.0639	0.362	0.248	0.193	0.092	0.0806	0.455	0.372	0.239	0.159	0.369	0.303	0.118	0.0765	0.0558
NCI-H2009	0.576	0.185	0.166	0.109	0.0558	0.331	0.272	0.196	0.172	0.0871	0.75	0.825	0.753	0.396	0.255	0.22	0.174	0.123	0.0888
NCI-H3122	1.04	–	0.549	–	0.131	0.541	–	0.602	–	0.329	0.985	0.867	0.392	–	0.443	0.465	0.59	0.32	0.318
NCI-H1944	0.469	0.267	0.282	0.12	0.118	0.41	0.354	0.401	0.326	0.278	0.5	0.372	0.201	0.164	1.13	–	0.633	0.666	0.336
NCI-H358	–	0.165	0.0628	0.0625	0.0709	0.244	0.213	0.121	0.0796	0.0666	0.837	0.664	0.529	0.192	0.386	0.225	0.106	0.116	0.0764
NCI-H1755	0.555	0.477	0.223	0.189	0.218	0.757	0.634	0.483	0.336	0.133	0.777	0.493	0.307	0.306	0.569	0.352	0.179	0.176	0.163
